Legend:
Xenopus embryos [1] = assay: Gastrulation scoring (incomplete blastopore closure) in treated or kcnh6-depleted embryos; format: in vivo, Xenopus tropicalis; conditions: for inability to complete gastrulation: kcnh6 depletion, injected at one-cell stage
Protocol: All injections of Xenopus embryos were performed at the one-cell stage using a fine glass needle and Picospritzer system. A kcnh6 translation blocking (kcnh6 MO, 5′-[…]-3′, SEQ ID NO:1) and a scrambled morpholino oligonucleotide were obtained from Gene Tools LLC and injected at 10 ng to deplete kcnh6 or as a control, respectively. CRISPR sgRNAs for kcnh6 targeted either exon 3 or exon 4 based on the v7.1 gene model of the X. tropicalis genome (CRex3: 5′-[…]-3′, SEQ ID NO:2 and CRex4: 5′-[…]-3′, SEQ ID NO:3). CRISPR sgRNAs for cacna1c (5′-[…]-3′, SEQ ID NO:4) and cacna1g (5′-[…]-3′, SEQ ID NO:5) were designed from the v7.1 model of the Xenopus tropicalis genome. For F0 CRISPR knockdown, embryos were injected with 1.5 ng Cas9 Protein (PNA-Bio) and 400 pg of targeting sgRNA and raised to desired stages. […] Full length human KCNH6 (NM 030779.3; cloned in pCS107), GCaMP6 (subcloned in pCSDest) and mCherry cDNAs (Addgene #34935; in pCS2+), were used to generate capped mRNAs in vitro by first linearizing with appropriate restriction enzymes and then transcribing with the mMessage machine kit (Ambion). mRNAs were injected at 3 pg (human KCNH6), 150 pg (GCaMP6) and 150 pg (mCherry) per embryo. Embryos were raised at 21° C. to allow time for sufficient expression levels at blastula/gastrula stages.
(§1) Normal embryonic medium is 1/9× modified Ringer's (MR) containing 11 mM NaCl, 0.2 mM KCl, 0.2 mM CaCl2), 0.1 mM Mg2Cl and 0.55 mM HEPES. To allow Ergtoxin to penetrate the embryos, the present study manually removed the vitelline envelope of stage 8 embryos and incubated embryos in 1/9×MR containing 50 nM Ergtoxin (Alomone STE-450) until stage 12. Embryos were then transferred back into 1/9×MR lacking Ergtoxin to develop until stage 45 in order to score organ situs. Barium chloride was applied into the medium at 20 mM and embryos were thoroughly rinsed in 1/9×MR after each incubation period for further development in Ba2+-free medium. For extracellular K^+ manipulations, the KCl concentration in 1/9×MR was modified from 0.2 mM (normal) to 20 mM (high) or 0 mM (low). The ionophore valinomycin (ACROS) and L-type VGCC blocker Nifedipine (ACROS) were diluted in DMSO as stock solutions and applied to embryos in 1/9×MR at 2 nM and 10 μM respectively. Treatments performed during gastrulation were applied from stage 8 through stage 12, and embryos were then rinsed thoroughly and returned into 1/9×MR. For rapamycin, the present study created a standard stock solution of 50 mg/ml in DMSO. The stock solution was diluted 1:2500 in the appropriate embryonic media (final 20 μg/ml). Embryos were treated at stage 7 and then fixed at stage 11 for in situ hybridization.
(§2) In experiments where embryos were evaluated for phenotypes and scored (gastrulation, left-right patterning, in situ hybridizations) the present study carried out three to five biological replicates and Fisher's exact test to evaluate statistical significance. The animal cap experiment was performed twice with a total score of four to eight animal caps per experiment. For the calcium transient analyses, data was collected from three to five embryos in each experiment in three independent experiments, and statistical analyses on GCaMP/mCherry fluorescence intensity as well as Ca^2+ transient area were performed using student's t-test. For whole cell electrophysiological recordings, three to five embryos (two cells each) were examined for their membrane potential and statistical significance was tested by student's t-test. Graphs were designed using GraphPad Prism software. Models were created with BioRender.com.

Xenopus embryos [2] = assay: Organ situs (left-right patterning) scoring in stage 45 tadpoles; format: in vivo, Xenopus tropicalis; conditions: for abnormal organ situs: kcnh6 depletion, injected at one-cell stage
Protocol: Stage 45 Xenopus embryos were paralyzed with benzocaine or tricaine and scored with a light stereomicroscope. Cardiac looping was determined by position of the outflow tract; D-loop: rightward, L-loop: leftward; A-loop: midline. Normal intestinal looping was scored as counter-clockwise rotation of the gut, while abnormal intestinal looping was scored as completely inverse gut rotation (clockwise) or complete lack of looping (un-looped). While a completely inverted gut rotation is clearly an abnormality of LR patterning, an unlooped gut is less clear so the present study only considered an unlooped gut as abnormal situs when combined with abnormal placement (left-sided or midline) of the gall bladder. To quantify total abnormal organ situs, each tadpole was counted only once, regardless of whether multiple organs were affected.
as §1, §2

Xenopus embryos [3] = assay: Whole mount in situ hybridization for germ layer and pluripotency markers; format: in vivo, Xenopus tropicalis; conditions: for expression of ectodermin and myf5 on co-depletion in kcnh6 depleted embryos: CRISPR co-depletion
Description: In order to generate a full-length antisense probe for X. tropicalis kcnh6, kcnh6 cDNA was cloned from stage 45 tadpole whole mRNA using primers […] ID NO:10) and […] ID NO:11) (XM_012952904.1). It was noted that kcnh6 had been misannotated as kcnh2 in the v7.1 model of the X. tropicalis genome (The present study used NCBI Annotation XP_012808358.2 to identify KCNH6). […] GRPs were dissected post fixation and prior to dehydration to detect dandy. To detect putative gene expression in the prospective endoderm (mixer, vegT, kcnh6) gastrula stage embryos were bisected to facilitate better probe access. Briefly, whole mount in situ hybridization of digoxigenin-labeled antisense probes was performed overnight, the labelled embryos were then washed, incubated with anti-digoxigenin-AP Fab fragments (Roche 11093274910), and signal was detected using BM-purple (Roche 11442074001). Normal embryonic medium is 1/9× modified Ringer's (MR) containing 11 mM NaCl, 0.2 mM KCl, 0.2 mM CaCl2), 0.1 mM Mg2Cl and 0.55 mM HEPES. […] For extracellular K^+ manipulations, the KCl concentration in 1/9×MR was modified from 0.2 mM (normal) to 20 mM (high) or 0 mM (low). […] For rapamycin, the present study created a standard stock solution of 50 mg/ml in DMSO. The stock solution was diluted 1:2500 in the appropriate embryonic media (final 20 μg/ml). […] In experiments where embryos were evaluated for phenotypes and scored (gastrulation, left-right patterning, in situ hybridizations) the present study carried out three to five biological replicates and Fisher's exact test to evaluate statistical significance. The animal cap experiment was performed twice with a total score of four to eight animal caps per experiment. […] For whole cell electrophysiological recordings, three to five embryos (two cells each) were examined for their membrane potential and statistical significance was tested by student's t-test. Graphs were designed using GraphPad Prism software. Models were created with BioRender.com.

[4] = system: animal pole cells (prospective ectoderm); assay: Intracellular Vm recordings in animal pole cells; format: in vivo, Xenopus tropicalis; conditions: high K^+ and ½ sodium replacement with choline; stage 9 animal pole
Description: For recordings, devitellinized, stage 10 kcnh6 or control MO injected embryos were mounted into non-toxic clay with their animal pole exposed and covered with 1/9×MR. To investigate the resting potential, animal pole cells were impaled with a high-impedance (˜70 Me), sharp microelectrode filled with 3 M KCl for intracellular recordings. The recordings were made using an Axon 200B amplifier and digitized using a Digidata 1320 digitizer. Jclamp software for Windows was used in current clamp mode. All electrodes were zeroed just before entry into the cells.
For the series of intracellular recordings in high K^+ and choline treated embryos, stage 8-9 embryos were impaled similarly with an electrode of […]. These recordings were made using a HEKA EPC10 amplifier. The present study used HEKA PatchMaster v2x67 software for Windows. […]
In experiments where embryos were evaluated for phenotypes and scored (gastrulation, left-right patterning, in situ hybridizations) the present study carried out three to five biological replicates and Fisher's exact test to evaluate statistical significance. […] For the calcium transient analyses, data was collected from three to five embryos in each experiment in three independent experiments, and statistical analyses on GCaMP/mCherry fluorescence intensity as well as Ca^2+ transient area were performed using student's t-test. […]

hESCs = assay: hESC pluripotency marker immunofluorescence; format: cell-based, human; conditions: hESCs, rapamycin 100 nM, 5 days
Protocol: hESCs were grown in mTeSR1 ([…] Technologies) in tissue culture dishes coated with Matrigel (Corning; 1:200 in DMEM/F12) and kept at 37° C., 5% CO2. The cell lines used were ESI017 (ESIBIO) and H9.
Cells were dissociated with accutase and seeded onto 8 well imaging slides (ibidi 80826) at a density of 4-6×10^4/cm^2. Cells were seeded and maintained in Rock-inhibitor Y27672 (MCE; 10 μM) to increase survival and the uniformity of response. Treatments with 1 mM BaCl2 or 10 or 25 nM Ergtoxin or 100 nM rapamycin were initiated 4 hours after seeding. Differentiation was initiated 24 hours after seeding where indicated. To initiate differentiation, the media was replenished with/without BaCl2 or Ergtoxin and treated with the indicated growth factors or small molecules. Cells were incubated for the indicated times without media change before fixation.
Cells were fixed for 30 min in 4% paraformaldehyde, rinsed twice with DPBS (without Ca^2+ and Mg^2+, denoted DPBS^−/−), and blocked for 30 min at room temperature. The blocking solution contained 3% donkey serum and 0.1% Triton X-100 in 1×DPBS^−/−. After blocking, the cells were incubated with primary antibodies at room temperature for 2 hours. Antibodies and concentrations are listed below. Cells were washed three times with DPBST (1×DPBS^−/− with Tween 20) and incubated with secondary antibodies (AlexaFluor 488 A21206, AlexaFluor 555 A31570 and A21432, and AlexaFluor 647 A31571, Thermo Fisher; 1:500) and DAPI for 30 min at room temperature. After secondary antibody incubation, samples were washed in DPBST and then DPBS at room temperature.
Images were acquired using a 20×, NA 0.75 objective on an Olympus IX83 inverted epifluorescence microscope or an Olympus/Andor spinning disk confocal microscope. Cell segmentation was performed using ilastik software. This segmentation was cleaned (to remove debris and to separate merged cells) and mean nuclear protein intensities as well as standard errors were quantified using a custom MATLAB code. Nuclear intensities were normalized by DAPI to correct for intensity variation due to optics. […]

[5] = nifedipine-treated (10 μM) kcnh6 CR embryos
[6] = nifedipine-treated (10 μM) kcnh6 MO embryos

## CR-ex4: CRISPR sgRNA targeting kcnh6 exon 4, SEQ ID NO:3, injected with Cas9 protein (guide AGGGCGCTCTACATTTCCAATGG; sgRNA injected with Cas9 protein, chemistry not given here; the letters are possibly those of the target site)
Xenopus embryos [1]
  inability to complete gastrulation: 29±5%
Xenopus embryos [2]
  abnormal organ situs: 19±1%

## CC(C)[C@@H]1NC(=O)[C@H](C)OC(=O)[C@@H](C(C)C)NC(=O)[C@@H](C(C)C)OC(=O)[C@H](C(C)C)NC(=O)[C@H](C)OC(=O)[C@@H](C(C)C)NC(=O)[C@@H](C(C)C)OC(=O)[C@H](C(C)C)NC(=O)[C@H](C)OC(=O)[C@@H](C(C)C)NC(=O)[C@@H](C(C)C)OC1=O [valinomycin]
Xenopus embryos [1]; kcnh6 CR embryos treated with valinomycin 2 nM, stage 8-12
  gastrulation defect in kcnh6 CR embryos: 16±7%

## COC(=O)C1=C(C)NC(C)=C(C(=O)OC)C1c1ccccc1[N+](=O)[O-] [nifedipine]
Xenopus embryos [3]; [5]
  embryos with absent ectodermin: 16±7%
  embryos with myf5 lost: 16±1%
Xenopus embryos [3]; [6]
  embryos with absent ectodermin: 17±3%
  embryos with myf5 lost: 18±5%

## C[N+](C)(C)CCO [choline]
[4]
  Vm: −41±4 mV

## CO[C@H]1C[C@@H]2CC[C@@H](C)[C@@](O)(O2)C(=O)C(=O)N2CCCC[C@H]2C(=O)O[C@H]([C@H](C)C[C@@H]2CC[C@@H](O)[C@H](OC)C2)CC(=O)[C@H](C)/C=C(\C)[C@@H](O)[C@@H](OC)C(=O)[C@H](C)C[C@H](C)/C=C/C=C/C=C/1C [rapamycin]
hESCs
  final cell numbers per well: reduce the final cell numbers per well

## [Ba+2].[Cl-].[Cl-] [Barium, Barium chloride]
Xenopus embryos [1]; depolarizing treatment at blastula/gastrula stages (stage 8-12), barium chloride 20 mM or KCl 20 mM, ±SEM
  embryos that failed to complete gastrulation: 37±3%
Xenopus embryos [2]; depolarizing treatment at blastula/gastrula stages, scored at stage 45, ±SEM
  embryos with misplacement of organs relative to the left-right axis (defective organ situs): 23±2%
Xenopus embryos [3]; depolarized embryos, stage 10
  markers of dorsal (gsc, nodal3) and ventral mesoderm (vent2): unaffected
  paraxial mesoderm fates (myoD, myf5, tbxt): lost

## CR-ex3: CRISPR sgRNA targeting kcnh6 exon 3, SEQ ID NO:2, injected with Cas9 protein (guide GGAATAAGGGGTGAAGACAGCGG; sgRNA injected with Cas9 protein, chemistry not given here; the letters are possibly those of the target site)
Xenopus embryos [1]
  inability to complete gastrulation: 27±4%
Xenopus embryos [2]
  abnormal organ situs: 43±12%

## cacna1c: CRISPR sgRNA for cacna1c (Cav1.2; L-type), SEQ ID NO:4 (guide GCAGACGGGGGCAGCGCCATTGG; sgRNA chemistry not given here; the letters are possibly those of the target site)
Xenopus embryos [3]
  expression of ectodermin and myf5 on co-depletion in kcnh6 depleted embryos: rescued expression

## cacna1g: CRISPR sgRNA for cacna1g (Cav3.1; T-type), SEQ ID NO:5 (guide GGTTAATGGCTCTCAGCGGGCGG; sgRNA chemistry not given here; the letters are possibly those of the target site)
Xenopus embryos [3]
  expression of ectodermin and myf5 on co-depletion in kcnh6 depleted embryos: no rescue

— patent US20240018470A1, “METHOD OF MANIPULATING PLURIPOTENCY IN CELLS” (YALE UNIVERSITY, priority 2022, published 2024)
